Biological target: farnesyl protein transferase
Assay: In vitro enzyme assay: inhibition of farnesyl protein transferase (FPT), [3H]farnesyl transfer to Ras-CVLS
Assay type: biochemical, rat (brain); human (expressed in E. coli)
Settings: not given
Excerpt: 1. In vitro enzyme assays: Inhibition of famesyl protein transferase and geranylgeranyl protein transferase.
Farnesyl protein transferase (FPT) was partially purified from rat brain by ammonium sulfate fractionation followed by Q-Sepharose (Pharmacia, Inc.) anion exchange chromatography essentially as described by Yokoyama et al (Yokoyama, K., et al., (1991), A protein geranylgeranyltransferase from bovine brain: Implications for protein prenylation specificity, Proc. Natl. Acad. Sci USA 88: 5302-5306, the disclosure of which is incorporated herein by reference thereto). Human famesyl protein transferase was also expressed in E. coli, using cDNA clones encoding both the a and b subunits. The methods used were similar to those published (Omer, C. et al., (1993), Characterization of recombinant human famesyl protein transferase: Cloning, expression, farnesyl diphosphate binding, and functional homology with yeast prenyl-protein transferases, Biochemistry 32:5167-5176). Human famesyl protein transferase was partially-purified from the soluble protein fraction of E. coli as described above. […] Two forms of val^12 -Ha-Ras protein were prepared as substrates for these enzymes, differing in their carboxy terminal sequence. One form terminated in cysteine-valine-leucine-serine (Ras-CVLS) the other in cystein-valine-leucine-leucine (Ras-CVLL). Ras-CVLS is a substrate for the famesyl protein transferase while Ras-CVLL is a substrate for geranylgeranyl protein transferase I. The cDNAs encoding these proteins were constructed so that the proteins contain an amino-terminal extension of 6 histidine residues. Both proteins were expressed in Escherichia coli and purified using metal chelate affinity chromatography. The radiolabelled isoprenyl pyrophosphate substrates, [^3 H]farnesyl pyrophosphate and [^3 H]geranylgeranyl pyrophosphate, were purchased from DuPon/New England Nuclear.
Several methods for measuring farnesyl protein transferase activity have been described (Reiss et al 1990, Cell 62: 81; Schaber et al 1990, J. Biol. Chem. 265: 14701; Manne et al 1990, PNAS 87: 7541; and Barbacid & Manne 1993, U.S. Pat. No. 5,185,248). […] The reaction was allowed to proceed for 30 minutes at room temperature and then stopped with 0.5 ml of 4% sodium dodecyl sulfate (SDS) followed by 0.5 ml of cold 30% TCA. Samples were allowed to sit on ice for 45 minutes and precipitated Ras protein was then collected on GF/C filter paper mats using a Brandel cell harvester. Filter mats were washed once with 6% TCA, 2% SDS and radioactivity was measured in a Wallac 1204 Betaplate BS liquid scintillation counter. Percent inhibition was calculated relative to the DMSO vehicle control.

Compared with `CN(C)CCCC(=O)N1CCC(C2c3ncc(Br)cc3CCc3cc(Cl)cc(Cl)c32)CC1` (single isomer, unassigned) [Example 6], `CN(C)CCCCC(=O)N1CCC(C2c3ncc(Br)cc3CCc3cc(Cl)cc(Cl)c32)CC1` (single isomer, unassigned) [Example 7] is 3.4-fold higher in IC50: 6.5 nM for the first, 22 nM for the second.

First: O=C(O)CCCCCC(=O)N1CCC([C@H]2c3ncc(Br)cc3CCc3cc(Cl)cc(Br)c32)CC1 [Example 58, (+)-SODIUM 4-(3,10-DIBROMO-8-CHLORO-6,11-DIHYDRO-5H-BENZO[5,6]CYCLO-HEPTA[1,2-b]PYRIDIN-11 (R)-YL)-OMEGA-OXO-1-PIPERIDININE HEPTANOATE]
Second: NC(=O)CCCCCC(=O)N1CCC([C@H]2c3ncc(Br)cc3CCc3cc(Cl)cc(Br)c32)CC1 [Example 59, (+)-4-(3,10-DIBROMO-8-CHLORO-6,11-DIHYDRO-5H-BENZO[5,6]CYCLO-HEPTA[1,2-b]PYRIDIN-11(R)-YL)-OMEGA-OXO-1-PIPERIDININE HEPTANAMIDE]
The IC50 of the first is 2.8-fold higher: 9.1 nM for the first, 3.3 nM for the second. The second is the more potent here.

Going from `COC(=O)CCCCC(=O)N1CCC([C@H]2c3ncc(Br)cc3CCc3cc(Cl)cc(Br)c32)CC1` [Example 54, (+)-METHYL 4-(3,10-DIBROMO-8-CHLORO-6,11-DIHYDRO-5H-BENZO[5,6]CYCLO-HEPTA[1,2-b]PYRIDIN-11(R)-YL)-EPSILON-OXO-1-PIPERIDININE HEXANOATE] to `COC(=O)CCC(=O)N1CCC([C@H]2c3ncc(Br)cc3CCc3cc(Cl)cc(Br)c32)CC1` [Example 48, (+)-METHYL 4-(3,10-DIBROMO-8-CHLORO-6,11-DIHYDRO-5H-BENZO[5,6]CYCLO-HEPTA[1,2-b]PYRIDIN-11(R)-YL)-GAMMA-OXO -1-PIPERIDININE BUTANOATE], the IC50 falls from 15 nM to 9 nM (1.7-fold).

First: CN(C)CCC(=O)N1CCC(C2c3ncc(Br)cc3CCc3cc(Cl)cc(Cl)c32)CC1 (single isomer, unassigned) [Example 5]
Second: CN(C)CC(=O)N1CCC(C2c3ncc(Br)cc3CCc3cc(Cl)cc(Cl)c32)CC1 (single isomer, unassigned) [Example 4]
The IC50 of the first is 6.8-fold lower: 56 nM for the first, 380 nM for the second. The first is the more potent here.

`NC(=O)NCCCC(=O)N1CCC(C2c3ncc(Br)cc3CCc3cc(Cl)cc(Cl)c32)CC1` (single isomer, unassigned; (+)) [Example 31] and `CC(=O)NCCCC(=O)N1CCC(C2c3ncc(Br)cc3CCc3cc(Cl)cc(Cl)c32)CC1` (single isomer, unassigned) [Example 15] are within 1.5-fold of each other in IC50: 58 nM for the first, 63 nM for the second.

First: O=C(CCC(=O)N1CCC(C2c3ncc(Br)cc3CCc3cc(Cl)cc(Cl)c32)CC1)N1CCCC1 (single isomer, unassigned) [Example 14]
Second: O=C(CCN1CCCCC1)N1CCC(C2c3ncc(Br)cc3CCc3cc(Cl)cc(Cl)c32)CC1 (single isomer, unassigned) [Example 9]
The IC50 of the first is 2.7-fold higher: 16 nM for the first, 6 nM for the second.

`O=C(O)CC(=O)N1CCC([C@H]2c3ncc(Br)cc3CCc3cc(Cl)cc(Br)c32)CC1` [Example 46, (+)-SODIUM 4-(3,10-DIBROMO-8-CHLORO-6,11-DIHYDRO-5H-BENZO[5,6]CYCLO-HEPTA[1,2-b]PYRIDIN-11(R)-YL)-BETA-OXO-1-PIPERIDININE PROPANOATE] and `NC(=O)CC(=O)N1CCC([C@H]2c3ncc(Br)cc3CCc3cc(Cl)cc(Br)c32)CC1` [Example 47, 4-(3,10-DIBROMO-8-CHLORO-6,11-DIHYDRO-5H-BENZO[5,6]CYCLO-HEPTA[1,2-b]PYRIDIN-11(R)-YL)-BETA-OXO -1-PIPERIDININE PROPANAMIDE] are within 1.5-fold of each other in IC50: 78 nM for the first, 68 nM for the second.

Compared with `CC(C)(C)OC(=O)NCC(=O)N1CCC(C2c3ncc(Br)cc3CCc3cc(Cl)cc(Cl)c32)CC1` (stereo not drawn) [Example 26], `CN(C)CCCC(=O)N1CCC(C2c3ncc(Br)cc3CCc3cc(Cl)cc(Br)c32)CC1` (single isomer, unassigned; (+)) [Example 2, (+)-4-(3,10-DIBROMO-8-CHLORO-6,11-DIHYDRO-5H-BENZO[5,6]-CYCLO-HEPTA[1,2-b]PYRIDIN-11-YL)-1-[4-(DIMETHYLAMINO)-1-OXOBUTYL]PIPERIDINE] is 140-fold lower in IC50: 540 nM for the first, 4 nM for the second.

Same assay, conditions: @ 0.06 μg/μL

Compound `O=C(NCCCC(=O)N1CCC(C2c3ncc(Br)cc3CCc3cc(Cl)cc(Cl)c32)CC1)c1ccncc1` (single isomer, unassigned) [Example 24] has an FPT inhibition of 20%.

Same assay, conditions: @ 330 nM

`CC(C)(C)OC(=O)NCCCC(=O)N1CCC(C2c3ncc(Br)cc3CCc3cc(Cl)cc(Cl)c32)CC1` (stereo not drawn) [Example 25] was tested, and the FPT inhibition was 47%.

System: Ras processing (val12-Ha-Ras-CVLS) in COS monkey kidney cells
Assay: Cell-based assay: inhibition of Ras processing in COS cells (transient expression of val12-Ha-Ras-CVLS)
Settings: Primates
Method: Following electroporation, cells were plated into 6-well tissue culture dishes containing 1.5 ml of Dulbecco's-modified Eagle's media (GIBCO, Inc.) supplemented with 10% fetal calf serum and the appropriate farnesyl protein transferase inhibitors. After 24 hours, media was removed and fresh media containing the appropriate drugs was re-added.
48 hours after electroporation cells were examined under the microscope to monitor disordered cell growth induced by transforming Ras. Cells expressing transforming Ras become more rounded and refractile and overgrow the monolayer, reminiscent of the transformed phenotype. Cells were then photographed, washed twice with 1 ml of cold phosphate-buffered saline (PBS) and removed from the dish by scraping with a rubber policeman into 1 ml of a buffer containing 25 mM Tris, pH 8.0; 1 mM ethylenediamine tetraacetic acid; 1 mM phenylmethylsulfonyl fluoride; […]; and 0.1 mM pepstatin. Cells were lysed by homogenization and cell debris was removed by centrifugation at 2000×g for 10 min.
Cellular protein was precipitated by addition of ice-cold trichloroacetic acid and redissolved in […] of SDS-electrophoresis sample buffer. […] Proteins resolved on the gels were electroblotted onto nitrocellulose membranes for immunodetection.
After washing, membranes were incubated for one hour at room temperature with a 1:5000 dilution of secondary antibody, rabbit anti-rat IgG conjugated to horseradish peroxidase, in PBS containing 1% fetal calf serum. The presence of processed and unprocessed Ras-CVLS or Ras-CVLL was detected using a colorimetric peroxidase reagent (4-chloro-1-naphthol) as described by the manufacturer (Bio-Rad).

Going from `CN(C)CCCC(=O)N1CCC(C2c3ncc(Br)cc3CCc3cc(Cl)cc(Cl)c32)CC1` (single isomer, unassigned) [Example 6] to `O=C(O)CCCCCC(=O)N1CCC([C@H]2c3ncc(Br)cc3CCc3cc(Cl)cc(Br)c32)CC1` [Example 58, (+)-SODIUM 4-(3,10-DIBROMO-8-CHLORO-6,11-DIHYDRO-5H-BENZO[5,6]CYCLO-HEPTA[1,2-b]PYRIDIN-11 (R)-YL)-OMEGA-OXO-1-PIPERIDININE HEPTANOATE], the IC50 rises from 35 nM to 300 nM (8.6-fold).

Compound `NC(=O)CCCCCC(=O)N1CCC([C@H]2c3ncc(Br)cc3CCc3cc(Cl)cc(Br)c32)CC1` [Example 59, (+)-4-(3,10-DIBROMO-8-CHLORO-6,11-DIHYDRO-5H-BENZO[5,6]CYCLO-HEPTA[1,2-b]PYRIDIN-11(R)-YL)-OMEGA-OXO-1-PIPERIDININE HEPTANAMIDE] has an IC50 of 15 nM.

From US6277854A, “Tricyclic antitumor farnesyl protein transferase inhibitors” (Schering Corporation, priority 1999, dated 2001)
